Converted amounts (≈) assume the structure as drawn.
Key:
[1] = Antitumor activity against mouse mammary cancer cell implanted in C3H/An mouse assessed as inhibition of tumor growth at 0.5 mg/day for 14 days; type: functional, Cancer cell lines
Mus musculus = assay: Toxicity in ip dosed ddY mouse bearing mouse S180 cells; type: organism-based, CCRF S-180; conditions: in vivo
CCRF S-180 [2] = assay: Antitumor activity against mouse S180 cells implanted in ip dosed ddY mouse assessed as tumor volume after 7 days; type: functional
LoVo = assay: Cytotoxicity against human LoVo cells; type: functional, cell-based
[3] = Antitumor activity against mouse EAC cells xenografted in rat; type: functional, Ehrlich
CCRF S-180 [4] = assay: Antitumor activity against mouse S180 cells xenografted in rat; type: functional
HCT-116 = assay: Cytotoxicity against human HCT116 cells; type: functional, cell-based
KB = assay: Cytotoxicity against human KB cells; type: functional, cell-based
L5178Y = assay: Cytotoxicity against mouse L5178Y cells; type: functional, cell-based

**Q.** Which “inhibition (INH)” value [1] does the source give for `CC(=O)[C@H]1C(N2CC2)C[C@H]2[C@@H]3CC=C4C[C@@H](O)CC[C@]4(C)[C@H]3CC[C@]12C` (some centres not stated) here?
**A.** 61%

**Q.** Which LD50 (Mus musculus) does the source give for `COC1=C(C)C(=O)C2=C(C1=O)[C@H](COC(N)=O)[C@@]1(OC)[C@@H]3[C@H](CN21)N3C` (some centres not stated) [MITOMYCIN J] here?
**A.** 9 µg/mL

**Q.** What about the ED50 (CCRF S-180 [2]) of the same compound?
**A.** 10 µg/mL (≈ 27.5 µM)

**Q.** With `CO[C@@]12[C@H](COC(N)=O)C3=C(C(=O)C(C)=C(N)C3=O)N1C[C@H]1[C@@H]2N1C` (some centres not stated) [PORFIROMYCIN] as the compound, how does the LD50 (Mus musculus) read?
**A.** 57 µg/mL

**Q.** What about the ED50 (CCRF S-180 [2]) of the same compound?
**A.** 22 µg/mL (≈ 63.2 µM)

**Q.** Which IC50 (LoVo) does the source give for `CC(=O)[C@]1(O)Cc2c(O)c3c(c(O)c2[C@@H](OC2C[C@H](N4CC4)[C@H](OS(C)(=O)=O)[C@H](C)O2)C1)C(=O)c1ccccc1C3=O` (some centres not stated) here?
**A.** 0.0027 µg/mL (≈ 0.00449 µM)

**Q.** With `COc1ccc2c(c1)CC[C@@H]1[C@@H]2CC[C@]2(C)C(=O)C(N3CC3)C[C@@H]12` (some centres not stated) as the compound, how does the “inhibition (INH)” value [1] read?
**A.** 17%

**Q.** For `CC1(C)CC(CCC(=O)ONP(=O)(N2CC2)N2CC2)CC(C)(C)N1O`, which Activity [3] is on record?
**A.** 90%

**Q.** What about the Activity (CCRF S-180 [4]) of the same compound?
**A.** 93%

**Q.** With `COC1=C(C)C(=O)C2=C(C1=O)[C@@H](COC(N)=O)[C@@]1(OC)[C@H]3N[C@H]3CN21` [MITOMYCIN A] as the compound, how does the LD50 (Mus musculus) read?
**A.** 2.1 µg/mL

**Q.** And the ED50 (CCRF S-180 [2])?
**A.** 1.1 µg/mL (≈ 3.15 µM)

**Q.** Which IC50 (HCT-116) does the source give for `CCCCCCCCCCCCC/C=C/C1=N[C@@H]1C(=O)OC` here?
**A.** 18.2 µM

**Q.** For `C=C1C2=C(C(=O)C(C)=C(OC)C2=O)N2C[C@H]3[C@H](N3C)[C@]12O` (some centres not stated) [MITOMYCIN H], which LD50 (Mus musculus) is on record?
**A.** 12 µg/mL

**Q.** What about the ED50 (CCRF S-180 [2]) of the same compound?
**A.** 6.8 µg/mL (≈ 23.6 µM)

**Q.** For `COC(=O)[C@@H]1N=C1/C=C\CCCCCCCCC/C=C(/Cl)Br`, which IC50 (HCT-116) is on record?
**A.** 13.6 µM

**Q.** With `COC1=C(C)C(=O)C2=C(C1=O)[C@@H](COC(N)=O)[C@@]1(O)[C@H]3N[C@H]3CN21` [9A-DEMETHYLMITOMYCIN A] as the compound, how does the LD50 (Mus musculus) read?
**A.** 7.5 µg/mL

**Q.** What about the ED50 (CCRF S-180 [2]) of the same compound?
**A.** 4.9 µg/mL (≈ 14.6 µM)

**Q.** Which results are given for `CC1(C)CC(C(=O)ONP(=O)(N2CC2)N2CC2)CC(C)(C)N1O`?
**A.** Activity [3]: 90%; Activity (CCRF S-180 [4]): 93%

**Q.** For `CC(=O)O[C@H]1C(=O)[C@@]2(C)C([C@H](OC(=O)c3ccccc3)[C@]3(O)C[C@H](OC(=O)[C@@H](O)[C@H](CC(=O)OC(C)(C)C)c4ccco4)C(C)=C1C3(C)C)[C@]1(OC(=O)N3CC3)CO[C@@H]1C[C@@H]2O` (some centres not stated), which IC50 (HCT-116) is on record?
**A.** 0.002 µM

**Q.** With `CO[C@@]12[C@H](COC(N)=O)C3=C(C(=O)C(C)=C(N)C3=O)N1C[C@@H]1N[C@@H]12` [MITOMYCIN] as the compound, how does the ED50 (CCRF S-180 [2]) read?
**A.** 4.4 µg/mL (≈ 13.2 µM)

**Q.** With `C=C1C2=C(C(=O)C(C)=C(N)C2=O)N2C[C@H]3[C@H](N3C)[C@]12OC` (some centres not stated) [MITOMYCIN K] as the compound, how does the LD50 (Mus musculus) read?
**A.** 22 µg/mL

**Q.** And the ED50 (CCRF S-180 [2])?
**A.** 35 µg/mL (≈ 122 µM)

**Q.** Which IC50 (KB) does the source give for `C/C(=C\c1csc(C)n1)[C@@H]1C[C@H]2[C@@H](CCC[C@H](C)[C@H](O)[C@@H](C)C(=O)C(C)(C)[C@@H](O)CC(=O)O1)N2CCO` (some centres not stated) here?
**A.** 0.0043 µM

**Q.** For `COC(=O)[C@H]1N=C1/C=C/CCCCCCCCCC=C(Br)Br`, which IC50 (HCT-116) is on record?
**A.** 19.6 µM

**Q.** For `CC(=O)O[C@H]1C(=O)[C@@]2(C)C([C@H](OC(=O)c3ccccc3)[C@]3(O)C[C@H](OC(=O)[C@@H](O)[C@H](CC(=O)c4ccccc4)c4ccco4)C(C)=C1C3(C)C)[C@]1(OC(=O)N3CC3)CO[C@@H]1C[C@@H]2O` (some centres not stated), which IC50 (HCT-116) is on record?
**A.** 0.0069 µM

**Q.** Which IC50 (L5178Y) does the source give for `CC(=O)NC1CCn2c1nc1c2CC(C)=C(N2CC2)C1=O` (configuration not stated) here?
**A.** 4 µM
